Measured values from ChEMBL document CHEMBL1141934, “Comparison of ligand-based and structure-based 3D-QSAR approaches: a case study on (aryl-)bridged 2-aminobenzonitriles inhibiting HIV-1 reverse transcriptase” (J Med Chem, 2005).
pIC50: −log10 of the molar value.

Target: Human immunodeficiency virus type 1 reverse transcriptase (Human immunodeficiency virus 1, UniProt Q72547)
Experiment: Inhibitory concentration against Reverse transcriptase

| SMILES | pIC50 |
| --- | --- |
| N#Cc1ccccc1[S+]([O-])c1cccc(N)c1C#N (configuration not stated) | 5.01 |
| N#Cc1c(N)cccc1S(=O)(=O)c1ccc2ccccc2c1 | 7.53 |
